Patent US20050112251A1, “Preservation of liquids” (priority 2002, published 2005)

Columns and labels:
most food born fungi = conditions: cited from earlier work
[1] = tested on: Talaromyces macrosporus CBS 130.89 spores; assay: Time to visible growth of heat-resistant fungus spores in apple juice; format: cell-based; conditions: 104 spores/ml apple juice, incubation 25° C.
Method: This example describes the activity of natamycin against spores of a heat resistant fungal species, which is well known for causing spoilage problems in food industry. All experiments were executed on Talaromyces macrosporus CBS 130.89 spores suspended in pure apple juice. The chosen concentration of natamycin was sub-optimal. […] All experiment were executed in duplo.
Apple juice was inoculated with 104 spores/ml of apple juice. Natamycin was added at a concentration of 2.5 ppm. The spores suspended in the apple juice were submitted to a heat treatment at 80° C. for 5 minutes in order to stimulate their germination.
The samples were incubated at room temperature until fungal growth was visually observed (turbidity of the juice). Growth was observed after 4 days of incubation at 25° C.
This example describes the effect of a Pulsed Electric Field treatment against heat-resistant spores of Talaromyces macrosporus CBS 130.89. The pulsed electric fields treatments were applied as describe in the example 3. One sample point was validated for a frequency of 8.6 Hz (treatment A).
The chosen inoculation levels, natamycin concentrations and PEF treatments were as described in the examples 8 and 9. The natamycin can be added before or after the PEF treatment.
All samples were incubated at room temperature until fungal growth was visually observed (turbidity of the juice). […]

[2] = tested on: Byssochlamys nivea 424.300; assay: Natamycin MIC, agar diffusion method; format: cell-based; conditions: Paecilomyces niveus, agar plates, no visible growth
Method: (§1) The minimal inhibition concentration (MIC) of these fungi or the minimal effective amount of the antifungal compound was determined using the agar diffusion method, which is well known in the art. Fungus spores were grown on agar plates containing different concentrations of natamycin. The concentration of natamycin on which no visible growth could be observed was considered as the minimal inhibition concentration for that particular fungus strain.

[3] = tested on: Cladosporium tenuissimum 117.79; assay: Natamycin MIC, agar diffusion method; format: cell-based; conditions: isolated from fruit
Method: as §1

[4] = tested on: Peacilomyces variotii 10274; assay: Natamycin MIC, agar diffusion method; format: cell-based
Method: as §1

[5] = tested on: Stemphiliomma valparadisiacum 510.83; assay: Natamycin MIC, agar diffusion method; format: cell-based; conditions: isolated from apple juice
Method: as §1

[6] = tested on: Aspergillus versicolor 245.62; assay: Natamycin MIC, agar diffusion method; format: cell-based
Method: as §1

[7] = tested on: Mucor circinelloides 366.70; assay: Natamycin MIC, agar diffusion method; format: cell-based; conditions: isolated from strawberries
Method: as §1

[8] = tested on: Talaromyces macrosporus 130.89; assay: Natamycin MIC, agar diffusion method; format: cell-based; conditions: isolated from pineapple juice
Method: as §1

[9] = tested on: Zygosporium mycophilum 396.49; assay: Natamycin MIC, agar diffusion method; format: cell-based; conditions: isolated from apple pulp
Method: as §1

[10] = tested on: fungal spores which survived the PEF treatment; assay: Inhibition of outgrowth of fungal spores, summary of agar diffusion MIC; format: cell-based; conditions: summary of Table 1
Method: as §1

[11] = tested on: Zygosaccharomyces bailii CBS 1097; assay: Time to spoilage of inoculated apple juice (visible growth, turbidity); format: cell-based; conditions: room temperature
Method: (§2) All experiments were done with pure apple juice. The chosen concentrations of natamycin were sub-optimal (=below MIC).
(§3) All experiments were executed in duplo. • a. The effect of natamycin against the spore forming yeast Zygosaccharomyces bailii CBS 1097 was examined. Apple juice was inoculated with 10^4 Colony Forming Units (CFU)/ml of apple juice. Natamycin was added at a concentration of 1 ppm. • b. The effect of natamycin was tested against Penicillium italicum ATCC 36041. A spore suspension was prepared using well-known methods. The freshly prepared spore suspension was added to apple juice to a final concentration of 104 spores/ml of apple juice. Natamycin was added at a concentration of 5 ppm.
(§4) The samples were incubated at room temperature until fungal growth was visually observed (turbidity of the juice).
(§5) The pulsed electric fields treatments were applied according to well-known procedures for PEF-treatments of liquids. The apple juice to be treated was pumped through the PEF-treatment chamber with a flow rate of 60 litres per hour. The treatment temperature also called juice temperature before the PEF-treatment chamber was 17° C. The value of the electric field strength and the pulse length kept constant were 35 kV/cm and 2-μs, respectively. Three samples points were validated by variation of the pulse frequency, from 8.6 Hz (treatment A) to 5.7 Hz (treatment B) and 2.9 Hz (treatment C). With the above-mentioned parameters, the apple juice received 12, 8 or 4 pulses; those correspond to an energy density of 71, 37 and 12.5 J/ml of juice, respectively.
The chosen inoculation levels, natamycin concentrations and PEF treatments were as described in the examples 2 and 3.
(§6) All samples were incubated at room temperature until fungal growth was visually observed (turbidity of the juice).
Zygosaccharomyces bailii was inoculated in apple juice as described in example 2. Sorbate was added at a concentration of 800 ppm.
The PEF-treatment was used as described in the example 3. […] (treatment B).
The samples were incubated at room temperature.

[12] = tested on: Penicillium italicum ATCC 36041; assay: as above; format: cell-based; conditions: room temperature
Method: as §2, §3, §4, §5
The chosen inoculation levels, natamycin concentrations and PEF treatments were as described in the examples 2 and 3. The natamycin can be added before or after the PEF treatment.
as §6

[13] = cited from earlier work
[14] = Stability of antifungal agent in apple juice during PEF treatment (HPLC); format: physicochemical; conditions: for inactivation of the antifungal agent by the PEF treatment: general statement in the description
Method: as §5
This example illustrates the resistance of natamycin to PEF treatments. Natamycin was added to apple juice at a concentration of 5 ppm and submitted to pulsed electric field treatments as described in example 3. The natamycin content after the PEF-treatments was determined by HPLC.

[15] = natamycin 5 ppm + PEF-treatment C (2.9 Hz, 12.5 J/ml)

C[C@@H]1C/C=C/C=C/C=C/C=C/[C@H](O[C@@H]2O[C@H](C)[C@@H](O)[C@H](N)[C@@H]2O)C[C@@H]2O[C@](O)(C[C@@H](O)C[C@H]3O[C@@H]3/C=C/C(=O)O1)C[C@H](O)[C@H]2C(=O)O [natamycin]
MIC (Minimal Inhibition Concentration) (most food born fungi): less than 10 ppm | Time until growth observed ([1]; natamycin 2.5 ppm + PEF-treatment A): 9 days | Time until growth observed ([1]; natamycin 2.5 ppm alone, heat activation 80° C. 5 minutes): 4 days | MIC [2]: < 2.5 mg/L | MIC [3]: < 2.5 mg/L | MIC [4]: < 2.5 mg/L | MIC [5]: < 5 mg/L | MIC [6]: < 2.5 mg/L | MIC [7]: < 2.5 mg/L | MIC [8]: < 2.5 mg/L | MIC [9]: < 2.5 mg/L | concentration that inhibits the outgrowth of fungal spores [10]: < 5 ppm | Time to spoilage, natamycin added before PEF-treatment ([11]; natamycin 1 ppm + PEF-treatment A (8.6 Hz, 71 J/ml)): >30 days | Time to spoilage, natamycin added after PEF-treatment ([11]; natamycin 1 ppm + PEF-treatment B (5.7 Hz, 37 J/ml)): >30 days | Time to spoilage ([11]; natamycin 1.0 ppm alone, 10^4 CFU/ml): 2 days | Time to spoilage, natamycin added after PEF-treatment [12, 15]: >30 days | Time to spoilage, natamycin added before PEF-treatment [12, 15]: >30 days | Time to spoilage ([12]; natamycin 5.0 ppm alone, 104 spores/ml): 4 days | solubility in water [13]: 30 to 50 ppm | natamycin content after the PEF-treatments (HPLC) ([14]; 5 ppm in apple juice, PEF treatments as in example 3): None of the analyzed samples showed a decrease | inactivation of the antifungal agent by the PEF treatment [14]: not inactivated

CC=CC=CC(=O)O [sorbate]
Time without observed fungal growth ([11]; sorbate 800 ppm + PEF-treatment B): at least 30 days | Time until fungal growth visually observed ([11]; sorbate 800 ppm alone): 6 days | inactivation of the antifungal agent by the PEF treatment [14]: not inactivated
